Assay results taken from patent publication US7220732B2, “Compounds useful as photodynamic therapeutic agents” (priority 2002, dated 2007).
Like-named read-outs stand apart in the source and are kept apart here.

Columns and labels:
MRC5 cells = experiment: Light/dark cytotoxicity study (MTT) in MRC5 cells; assay type: cell-based
Experimental: MRC5 and HeLa cell cultures were maintained in MEM (minimum essential medium) containing 10% (v/v) foetal calf serum (FCS), 1% (v/v) non-essential amino acids, 2 μg/ml Fungizone (Trade Mark) (amphotericin B), 50 μg/ml penicillin, 50 μg/ml streptomycin, 20 mM HEPES and 1% (v/v) L-Glutamine. Cells were passaged at least twice before use in the cytotoxicity assays.
Stock haematoporphyrin water-dimethyl sulphoxide (DMSO) (100:1 (v/v)) solutions were diluted with MEM containing 10% FCS. Cells were seeded at 5,000 cells/well in 96-well plates and incubated for 24 hr at 37° C. The 24 hour incubation period was chosen having regard to the slower uptake of haernatoporphyrin in the absence of Cremophor, when compared to the compounds of the present invention in the presence of Cremophor (see below). Cells were then incubated with haematoporphyrin in the dark for 24 hr at 37° C. The haematoporphyrin laden culture medium was then removed by filtration, the cells were washed with PBS and fresh culture medium was added to each well. A 500 W light source, passed through a red glass and water filter barrier, (to ensure cells are irradiated with light of wavelength greater than 570 nm) was used to irradiate the plates for both 15 and 30 min. Following irradiation, the cells were incubated for a further 48 hr at 37° C. before being assessed for cell survival.
Stock 2a or 2b water-Cremophor EL (Trade Mark—CAS 61791-12-6) (1:250 (v/v)) solutions were diluted with MEM containing 10% FCS. Cells were seeded at 5,000 cells/well in 96-well plates and incubated for 24 hr at 37° C. Cells were then incubated with 2a or 2b in the dark for 3 hr at 37° C. The 3 hour incubation period was chosen to reflect the faster cellular uptake of 2a or 2b in the presence of Cremophor, when compared to the cellular uptake of haematoporphyrins in the absence of Cremophor. The 2a or 2b laden culture medium was then removed by filtration, the cells were washed with PBS and fresh culture medium was added to each well. The plates were then irradiated using a 500 W light source passed through a red glass and water filter barrier, (thereby ensuring cells are irradiated with light of wavelength greater than 570 nm) for both 15 and 30 min.
Following irradiation, the cells were incubated for a further 48 hr at 37° C. before being assessed for cell survival. The dark toxicity of compounds of the present invention was also assessed in each experiment.
Cell viability was estimated using the standard MTT (microtiter tetrazolium) assay. This assay measures mitochondrial dehydrogenase activity and is based on the reduction of a soluble yellow tetrazolium salt to a blue, insoluble MTT formazan product by this enzyme. The subsequent colour change produced by viable cells was quantified using a plate reader (VICTOR^2 1420 multilabel HTS counter, Wallac). As mentioned above under the headings “Cytotoxicity”, the cells are incubated at 37° C. for 48 hours, following which the MTT solution was added to the cells at a final concentration of 0.5 mg/ml and incubated for 3 hr at 37° C. The MTT solution was then removed by filtration and 100 μl DMSO was added to each well in order to lyse the cells and release the formazan dye. The plates were read 1 hr later at 540 nm.
Prism (Trade Mark) […] was used to graph the data obtained from the MTT assays and the uptake/efflux experiments. This programme allows non-linear regression analysis and the generation of sigmoidal dose response curves. Prism (Trade Mark) also automatically calculates EC50 values.
Light toxicity assays were also carried out as described above under “Assay methods” in HeLa and MRC5 cells for haematoporphyrin (FIGS. 9 and 10), 2a (FIGS. 11 and 12) and 2b (FIGS. 13 and 14).

[1] = Confocal microscopy subcellular localisation; assay type: cell-based; settings: FIGS. 17–19
Experimental: Cells were seeded at a density of 30,000 cells/well in chamber slides and allowed to adhere for 24 hr. 2a (10^−5 M) was then added to each chamber and incubated at 37° C. in the dark for either 1 hr or 3 hrs at 37° C.—a one hour incubation was used for FIGS. 4 and 5. The medium was removed and the cells were washed 4 times with drug-free (2a free) medium. The cells were then fixed with 3.7% (v/v) formaldehyde for 15 min at 37° C. The fixative solution was removed and the cells were washed twice with sterile PBS. DAPI (4′,6-diamidino-2-phenylindole) nuclear stain (1/1000) was then incubated with the cells for 10 min at 37° C., following which the cells were washed twice with PBS. Cells were then mounted in Vectashield (Trade Mark) mounting medium.
The cells were viewed using a Leica TCSSL Confocal Laser Scanning microscope (the LSM510 META Confocal Microscope was used to visualise DAPI and 2a simultaneously).
These could be lysosomes which have a typical size range of 0.2–2 μm; peroxisomes which have a typical size range of 0.5–1.5 μm; or endosomes which have a typical size range of 0.2–2 μm. It will be appreciated that localisation of the photosensitising compounds of the invention in different subcellular sites may impact on how effective the photodynamic therapy may be.

SMILES: F[B-]1(F)n2c(-c3ccccc3)cc(-c3ccccc3)c2N=C2C(c3ccccc3)=CC(c3ccccc3)=[N+]21 [Compound 2a]
- EC50 (MRC5 cells; MRC5, 0 J/cm^2 light (no light), read-out: EC50 (dark toxicity)): 3.5 µM
- EC50 (MRC5 cells; MRC5, 8 J/cm^2 light (15 mins from a 500 W light source), read-out: EC50): 2 µM
- EC50 (MRC5 cells; MRC5, 16 J/cm^2 light (30 mins from a 500 W light source), read-out: EC50): 0.46 µM
- cellular localisation [1]: both diffuse and punctuated cytoplasmic localisation
